We go through 13 compounds from ChEMBL document CHEMBL1201862, “PubChem BioAssay data set” (2004).

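Values below derive from 48-hour exposures of cells grown in 96-well plates, with endpoints linearly interpolated between the two concentrations bracketing the appropriate inhibition level. Abbreviation: GI50, concentration required for 50% inhibition of growth.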 Active and inactive are the calls of the source. Rule as the data show it: active = GI50 up to about 1.1 µM and inactive = higher.

Some test systems named below: NCI-H522; CAKI-1; M14; UACC-62; 786-0; K562; HCT-116; CCRF-CEM; TK-10; A498; SN12C; HOP-62; SK-MEL-2; SF-295; LOX IMVI; IGROV-1; RPMI-8226.
Common to all, as to assay: NCI tumour cell line growth inhibition, 48 h

Turning to `Cc1cc(NCCCCCCNc2cc(C)nc3cc(N(C)C)ccc23)c2ccc(N(C)C)cc2n1`, the GI50 is 10.6 µM (inactive) in the test on NCI-H522; 55.8 µM (inactive) in the test on CAKI-1; 49.9 µM (inactive) in the test with M14; 9.2 µM (inactive) with UACC-62; 52.4 µM (inactive) in the test with 786-0; 3.97 µM (inactive) in the test with K562. The GI50 in the test with HCT-116 was 10.7 µM (inactive); in the test with CCRF-CEM it was 22.3 µM (inactive); in the test on TK-10, > 100 µM (inactive); in the test on A498 it was > 100 µM (inactive); with SN12C it was 6 µM (inactive); with HOP-62 it was 54.2 µM (inactive). Further, the GI50 is 32.2 µM (inactive) in the test with SK-MEL-2 and 28.2 µM (inactive) in the test with SF-295.

`CC(=O)Nc1ccc(C(=O)NN2C(=O)C(Cl)C2c2ccccc2)cc1` (stereo not given): the GI50 in the test on NCI-H522, in the test with CAKI-1, with M14, in the test with LOX IMVI, in the test on UACC-62 and in the test on 786-0 was > 100 µM (inactive) throughout. Further, the GI50 with K562, in the test on HCT-116, in the test on CCRF-CEM, in the test with TK-10, with A498 and with IGROV-1 was > 100 µM (inactive) each time. Besides, the GI50 in the test with SN12C, with HOP-62, in the test on SK-MEL-2 and in the test with SF-295 was > 100 µM (inactive) in each case.

`[O-]c1c2c(nn1-c1ccccc1)c1ccccc1c[n+]2Cc1ccccc1`: the GI50 in the test with NCI-H522 was 73.6 µM (inactive); with M14 it was > 100 µM (inactive); in the test with RPMI-8226 it was > 100 µM (inactive); in the test with LOX IMVI, > 100 µM (inactive); in the test on UACC-62 it was > 100 µM (inactive); in the test on 786-0, > 100 µM (inactive). Also, the GI50 in the test on K562, in the test with HCT-116, with CCRF-CEM, with TK-10, in the test with IGROV-1 and in the test with SN12C was > 100 µM (inactive) in each case. Further, the GI50 with HOP-62, in the test with SK-MEL-2 and with SF-295 was > 100 µM (inactive) each time.

As for `C[C@@]12[Se]c3ccccc3[C@]1(C)[Se]c1ccccc12`, the GI50 in the test with NCI-H522 is 4.05 µM (inactive); in the test on CAKI-1, > 100 µM (inactive); in the test on M14, > 100 µM (inactive); with RPMI-8226, 8.85 µM (inactive); with LOX IMVI it was 5.89 µM (inactive); with UACC-62, 2.23 µM (inactive). In addition, the GI50 in the test with 786-0 was 4.85 µM (inactive); in the test with K562, 4.17 µM (inactive); with HCT-116 it was > 100 µM (inactive); with CCRF-CEM it was 4.39 µM (inactive); in the test with TK-10, > 100 µM (inactive); in the test with SN12C, > 100 µM (inactive). The GI50 with SK-MEL-2 is 3.85 µM (inactive); in the test with SF-295, 38.7 µM (inactive).

As for `C[N+](C)(C)CC1CCCCC1=O` (stereo not given), the GI50 is 19.1 µM (inactive) in the test with NCI-H522; 16.6 µM (inactive) in the test on M14; 9.06 µM (inactive) in the test on RPMI-8226; 14 µM (inactive) in the test on LOX IMVI; 18.9 µM (inactive) with UACC-62; > 100 µM (inactive) in the test on 786-0. Moreover, the GI50 was 8.63 µM (inactive) with K562; 17.7 µM (inactive) in the test on HCT-116; 4.56 µM (inactive) in the test on CCRF-CEM; 37.1 µM (inactive) in the test on TK-10; > 100 µM (inactive) in the test on IGROV-1; > 100 µM (inactive) in the test on SN12C. The GI50 with HOP-62 and with SF-295 was > 100 µM (inactive) each time.

In the case of `Oc1c(C(Nc2cccc3cccnc23)c2ccccc2)ccc2cccnc12` (stereo not given), the GI50 in the test with NCI-H522 was 16.8 µM (inactive); in the test on CAKI-1, 5.6 µM (inactive); in the test on RPMI-8226, 3.88 µM (inactive); in the test with LOX IMVI it was 3.94 µM (inactive); with UACC-62 it was 21.6 µM (inactive); in the test on 786-0, 4.07 µM (inactive). The GI50 with K562 is 3.32 µM (inactive); in the test on HCT-116 it was 5.6 µM (inactive); in the test with CCRF-CEM, 1.57 µM (inactive); with A498 it was 22.6 µM (inactive); in the test on IGROV-1, 8.04 µM (inactive); in the test on SN12C it was 9.48 µM (inactive). In addition, the GI50 was 9.64 µM (inactive) with HOP-62 and 3.87 µM (inactive) in the test on SF-295.

On to `COc1ccc(CNc2nc3ccc(C(F)(F)F)cc3nc2-c2ccccc2)cc1OC`, for which the GI50 in the test on RPMI-8226 was 35.9 µM (inactive); with LOX IMVI it was 36.8 µM (inactive); in the test with UACC-62, 30.1 µM (inactive); with 786-0, > 10 µM (inactive); in the test on HCT-116, 20.7 µM (inactive); in the test on CCRF-CEM it was 9.91 µM (inactive). Further, the GI50 is 71.6 µM (inactive) in the test on TK-10; 46.2 µM (inactive) in the test with SN12C; > 100 µM (inactive) with HOP-62; > 100 µM (inactive) in the test with SK-MEL-2; 42.9 µM (inactive) with SF-295.

Turning to `COc1ccc2c(c1)Cc1c-2[nH]c2cc3c(cc2c1=O)OCO3`, the GI50 in the test on NCI-H522 was 10.8 µM (inactive); in the test with CAKI-1 it was 32.1 µM (inactive); in the test with M14, 14.2 µM (inactive); in the test on RPMI-8226 it was 6.11 µM (inactive); in the test with LOX IMVI, 14.5 µM (inactive); in the test on UACC-62 it was 10.4 µM (inactive). Moreover, the GI50 is 20.2 µM (inactive) in the test with 786-0; 7.94 µM (inactive) in the test with K562; 6.56 µM (inactive) in the test on HCT-116; 4.33 µM (inactive) in the test on CCRF-CEM; 9.31 µM (inactive) in the test with TK-10; 16.9 µM (inactive) in the test with IGROV-1. For the same compound, the GI50 was 30.7 µM (inactive) with SN12C, 17.1 µM (inactive) with HOP-62, 6.14 µM (inactive) with SK-MEL-2 and 16.3 µM (inactive) in the test with SF-295.

Turning to `CN1CCN(c2nc(N)c(Br)c(Cl)n2)CC1`, the GI50 in the test on NCI-H522, in the test with CAKI-1, in the test on M14, with RPMI-8226, in the test on LOX IMVI and with UACC-62 was > 100 µM (inactive) in each case. In addition, the GI50 with 786-0, in the test with K562, in the test with CCRF-CEM, in the test on TK-10, in the test on IGROV-1 and with SN12C was > 100 µM (inactive) throughout. Also, the GI50 in the test with HOP-62, in the test with SK-MEL-2 and in the test with SF-295 was > 100 µM (inactive) each time.

In the case of `CC1=CC[C@@H](C(C)(C)O)C[C@@H]1O`, the GI50 with NCI-H522, in the test on M14, with LOX IMVI, in the test on UACC-62, in the test with 786-0 and in the test on K562 was > 5000 µM (inactive) in each case. The GI50 in the test with HCT-116, with CCRF-CEM, in the test on TK-10, in the test with A498, in the test with IGROV-1 and with SN12C was > 5000 µM (inactive) throughout. Also, the GI50 in the test with HOP-62, in the test on SK-MEL-2 and with SF-295 was > 5000 µM (inactive) each time.

`CN(C)CCNC(=O)c1cccc2c(Nc3ccc(S(N)(=O)=O)cc3)c3ccccc3nc12`: the GI50 in the test on NCI-H522 was 0.252 µM (active); in the test with CAKI-1, 3.25 µM (inactive); in the test with M14, 1.67 µM (inactive); in the test with RPMI-8226, 7.08 µM (inactive); in the test with LOX IMVI, 0.531 µM (active); in the test on UACC-62, 1.42 µM (inactive). The GI50 in the test with 786-0 is 1.09 µM (active); in the test with K562, 0.509 µM (active); in the test with HCT-116, 0.356 µM (active); in the test on TK-10, 1.97 µM (inactive); in the test on A498 it was 1.69 µM (inactive); with IGROV-1, 2.18 µM (inactive). In addition, the GI50 in the test on SN12C was 0.656 µM (active); with HOP-62, 3.1 µM (inactive); in the test with SK-MEL-2, 1.59 µM (inactive); in the test with SF-295, 2.01 µM (inactive).

For the compound `O=C1C(Cl)C(c2cccc([N+](=O)[O-])c2)N1n1cnc2ccccc2c1=O` (stereo not given), the GI50 in the test with NCI-H522 was 46.3 µM (inactive); with CAKI-1, 91.2 µM (inactive); in the test on M14 it was > 100 µM (inactive); in the test with RPMI-8226, 42.3 µM (inactive); in the test with LOX IMVI, > 100 µM (inactive); with UACC-62 it was > 100 µM (inactive). The GI50 in the test on 786-0 was > 100 µM (inactive); in the test on K562, 49.7 µM (inactive); in the test on HCT-116, 37.8 µM (inactive); with CCRF-CEM, > 10 µM (inactive); in the test with TK-10, > 100 µM (inactive); in the test on IGROV-1, > 100 µM (inactive). Also, the GI50 in the test on SN12C, in the test with HOP-62, in the test on SK-MEL-2 and in the test on SF-295 was > 100 µM (inactive) each time.

For `COC(=O)C1=C(C(=O)OC)C23CC1C1C(C(=O)OC)=C(C(=O)OC)C12C1C=CC3C2C(=O)OC(=O)C21` (stereo not given), the GI50 in the test on NCI-H522 is 22.4 µM (inactive); with M14, 41.3 µM (inactive); in the test with RPMI-8226 it was 32.3 µM (inactive); in the test with UACC-62, 31.5 µM (inactive); with 786-0 it was 94.2 µM (inactive); in the test with K562 it was 24 µM (inactive). The GI50 in the test with HCT-116 was 37.7 µM (inactive); in the test on CCRF-CEM, 40.4 µM (inactive); in the test on TK-10, > 100 µM (inactive); with IGROV-1 it was 59 µM (inactive); with SN12C, 91.4 µM (inactive); in the test with HOP-62, > 100 µM (inactive). The GI50 in the test on SK-MEL-2 is 35 µM (inactive); in the test on SF-295 it was 53 µM (inactive).
